US11123337B2, “4-methylsulfonyl-substituted piperidine urea compounds” (MYOKARDIA, INC., priority 2015, dated 2021)

Target: bovine cardiac myosin (Bos taurus, UniProt Q9BE39)
Assay: Myosin activation assay (PK/LDH-coupled ATPase, bovine cardiac myofibrils)
Assay type: biochemical
Conditions: AC20 = concentration at which total response is increased by twenty percent
Outline: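 Skinned bovine cardiac myofibrils (1 mg/mL) in PIPES/MgCl2 buffer pH 6.8 at free Ca2+ giving ~50% (pCa ~6) or <5% (pCa 10) activation, with 50 μM ATP and 3.3% DMSO. ATPase rate from NADH absorbance at 340 nm (PK/LDH coupling) over 15 min at ambient temperature. AC20/AC50 from a four-parameter fit of DMSO-normalised rates.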

bovine cardiac myosin, sequence (Q9BE39 whole entry): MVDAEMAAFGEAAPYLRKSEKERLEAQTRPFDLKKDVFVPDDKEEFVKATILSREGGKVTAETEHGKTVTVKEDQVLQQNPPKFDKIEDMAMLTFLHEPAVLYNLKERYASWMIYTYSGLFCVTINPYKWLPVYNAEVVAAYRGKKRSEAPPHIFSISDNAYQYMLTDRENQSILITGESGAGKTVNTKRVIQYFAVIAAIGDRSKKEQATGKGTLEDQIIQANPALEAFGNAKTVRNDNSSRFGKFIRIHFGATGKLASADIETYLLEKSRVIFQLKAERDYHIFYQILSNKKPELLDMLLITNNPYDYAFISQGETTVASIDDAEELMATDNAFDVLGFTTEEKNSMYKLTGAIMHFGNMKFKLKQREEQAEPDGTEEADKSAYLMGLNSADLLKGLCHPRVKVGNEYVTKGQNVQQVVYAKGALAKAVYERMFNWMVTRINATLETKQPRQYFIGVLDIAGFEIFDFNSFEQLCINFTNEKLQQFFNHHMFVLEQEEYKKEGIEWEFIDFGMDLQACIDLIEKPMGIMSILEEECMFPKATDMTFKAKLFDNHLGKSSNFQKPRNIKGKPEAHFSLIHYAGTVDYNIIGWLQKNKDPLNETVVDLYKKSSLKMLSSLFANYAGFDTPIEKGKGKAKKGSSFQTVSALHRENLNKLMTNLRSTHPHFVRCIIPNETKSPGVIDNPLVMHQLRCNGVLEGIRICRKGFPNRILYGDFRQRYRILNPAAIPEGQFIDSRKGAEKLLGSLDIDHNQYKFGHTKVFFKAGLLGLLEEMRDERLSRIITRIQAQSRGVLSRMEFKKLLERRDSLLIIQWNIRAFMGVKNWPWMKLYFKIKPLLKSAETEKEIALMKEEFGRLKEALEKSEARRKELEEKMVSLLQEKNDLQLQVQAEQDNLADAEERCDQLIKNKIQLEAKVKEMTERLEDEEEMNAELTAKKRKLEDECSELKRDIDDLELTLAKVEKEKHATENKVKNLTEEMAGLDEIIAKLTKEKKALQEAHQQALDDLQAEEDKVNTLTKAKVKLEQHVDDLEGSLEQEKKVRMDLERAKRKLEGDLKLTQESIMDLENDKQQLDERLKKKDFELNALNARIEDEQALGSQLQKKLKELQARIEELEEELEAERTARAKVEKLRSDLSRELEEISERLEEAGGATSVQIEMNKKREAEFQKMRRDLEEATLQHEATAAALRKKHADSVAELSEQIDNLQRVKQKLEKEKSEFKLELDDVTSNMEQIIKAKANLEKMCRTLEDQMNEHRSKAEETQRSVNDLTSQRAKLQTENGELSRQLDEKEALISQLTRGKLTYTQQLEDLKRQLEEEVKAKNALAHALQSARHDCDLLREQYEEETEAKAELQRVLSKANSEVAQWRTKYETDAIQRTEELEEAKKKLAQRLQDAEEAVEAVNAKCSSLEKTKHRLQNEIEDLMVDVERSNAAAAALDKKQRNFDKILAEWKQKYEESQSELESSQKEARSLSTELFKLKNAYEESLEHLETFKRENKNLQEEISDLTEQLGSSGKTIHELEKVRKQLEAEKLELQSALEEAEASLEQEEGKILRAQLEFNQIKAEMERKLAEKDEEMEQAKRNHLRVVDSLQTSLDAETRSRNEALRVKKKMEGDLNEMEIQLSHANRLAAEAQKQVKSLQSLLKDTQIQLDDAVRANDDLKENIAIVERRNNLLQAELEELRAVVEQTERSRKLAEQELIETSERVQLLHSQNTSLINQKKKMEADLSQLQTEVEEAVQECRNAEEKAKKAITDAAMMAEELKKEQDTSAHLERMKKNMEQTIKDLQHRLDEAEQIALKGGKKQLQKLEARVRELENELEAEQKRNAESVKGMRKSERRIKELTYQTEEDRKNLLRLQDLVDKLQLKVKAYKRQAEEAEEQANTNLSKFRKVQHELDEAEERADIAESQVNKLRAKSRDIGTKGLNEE
bovine cardiac myosin, sequence (P85100 whole entry partner): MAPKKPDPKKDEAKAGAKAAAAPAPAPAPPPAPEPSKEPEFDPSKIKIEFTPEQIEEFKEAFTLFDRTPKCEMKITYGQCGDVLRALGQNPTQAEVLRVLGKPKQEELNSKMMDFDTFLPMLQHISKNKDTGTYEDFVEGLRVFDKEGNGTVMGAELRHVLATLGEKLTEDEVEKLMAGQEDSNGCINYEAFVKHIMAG
bovine cardiac myosin, sequence (Q3SZE5 whole entry partner): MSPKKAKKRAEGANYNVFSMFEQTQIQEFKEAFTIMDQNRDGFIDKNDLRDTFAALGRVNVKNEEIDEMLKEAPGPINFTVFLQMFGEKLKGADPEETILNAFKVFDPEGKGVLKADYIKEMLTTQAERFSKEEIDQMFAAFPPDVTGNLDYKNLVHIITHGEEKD

Row | Structure (SMILES) | Myosin Activation (AC20)
1 | Cn1cnc(S(=O)(=O)C(C)(F)C2CCN(C(=O)Nc3ccnnc3)CC2)c1 (stereo not drawn) [Compound 272, 4-(1-fluoro-1-((1-methyl-1H-imidazol-4-yl)sulfonyl)ethyl)-N-(pyridazin-4-yl)piperidine-1-carboxamide] | + (+ represents myosin activation value AC20 > 5 μM)
2 | Cc1cnccc1S(=O)(=O)C(F)(F)C1CCN(C(=O)Nc2ccnnc2)CC1 [Compound 70, 4-(difluoro((3-methylpyridin-4-yl)sulfonyl)methyl)-N-(pyridazin-4-yl)piperidine-1-carboxamide] | ++ (++ represents myosin activation value AC20 from 2 μM-5 μM)
3 | O=C(Nc1ccnnc1)N1CCC(C(F)(F)S(=O)(=O)c2ccc(C3CC3)nc2)CC1 [Compound 60, 4-(((6-cyclopropylpyridin-3-yl)sulfonyl)difluoromethyl)-N-(pyridazin-4-yl)piperidine-1-carboxamide] | ++ (++ represents myosin activation value AC20 from 2 μM-5 μM)
4 | CCC(F)(C1CCN(C(=O)Nc2ccnnc2)CC1)S(=O)(=O)c1cccc(F)c1 (stereo not drawn) [Compound 77, 4-(1-fluoro-1-((3-fluorophenyl)sulfonyl)propyl)-N-(pyridazin-4-yl)piperidine-1-carboxamide] | ++ (++ represents myosin activation value AC20 from 2 μM-5 μM)
5 | COc1ncccc1S(=O)(=O)C(C)(C)C1CCN(C(=O)Nc2ccnnc2)CC1 [Compound 190, 4-(2-((2-methoxypyridin-3-yl)sulfonyl)propan-2-yl)-N-(pyridazin-4-yl)piperidine-1-carboxamide] | ++ (++ represents myosin activation value AC20 from 2 μM-5 μM)
6 | Cn1cc(S(=O)(=O)C(F)(F)C2CCN(C(=O)Nc3ccnc(F)c3)CC2)c(C(F)F)n1 [Compound 79, 4-(((3-(difluoromethyl)-1-methyl-1H-pyrazol-4-yl)sulfonyl)difluoromethyl)-N-(2-fluoropyridin-4-yl)piperidine-1-carboxamide] | + (+ represents myosin activation value AC20 > 5 μM)
7 | CC(F)(C1CCN(C(=O)Nc2ccc(F)nc2)CC1)S(=O)(=O)c1ccc(C#N)cc1 (stereo not drawn) [Compound 240, 4-(1-((4-cyanophenyl)sulfonyl)-1-fluoroethyl)-N-(6-fluoropyridin-3-yl)piperidine-1-carboxamide] | ++ (++ represents myosin activation value AC20 from 2 μM-5 μM)
8 | Cc1ccccc1S(=O)(=O)C(C)(C)C1CCN(C(=O)Nc2ccncc2)CC1 [Compound 212, N-(pyridin-4-yl)-4-(2-(o-tolylsulfonyl)propan-2-yl)piperidine-1-carboxamide] | +++ (+++ represents myosin activation value AC20 < 2 μM)
9 | Cn1cc(S(=O)(=O)C(C)(F)C2CCN(C(=O)Nc3ccc(F)nc3)CC2)c(C(F)(F)F)n1 (stereo not drawn) [Compound 244, 4-(1-fluoro-1-((1-methyl-3-(trifluoromethyl)-1H-pyrazol-4-yl)sulfonyl)ethyl)-N-(6-fluoropyridin-3-yl)piperidine-1-carboxamide] | + (+ represents myosin activation value AC20 > 5 μM)
10 | Cc1cc(S(=O)(=O)C(C)(C)C2CCN(C(=O)Nc3cnns3)CC2)n(C)n1 [Compound 188, 4-(2-((1,3-dimethyl-1H-pyrazol-5-yl)sulfonyl)propan-2-yl)-N-(1,2,3-thiadiazol-5-yl)piperidine-1-carboxamide] | +++ (+++ represents myosin activation value AC20 < 2 μM)
11 | O=C(Nc1ccns1)N1CCC(C2(S(=O)(=O)c3cc(F)cc(F)c3)CC2)CC1 [Compound 203, 4-(1-((3,5-difluorophenyl)sulfonyl)cyclopropyl)-N-(isothiazol-5-yl)piperidine-1-carboxamide] | +++ (+++ represents myosin activation value AC20 < 2 μM)
12 | CC(F)(C1CCN(C(=O)Nc2ccon2)CC1)S(=O)(=O)c1ccc(C(F)(F)F)cc1 (stereo not drawn) [Compound 8, 4-(1-Fluoro-1-((4-(trifluoromethyl)phenyl)sulfonyl)ethyl)-N-(isoxazol-3-yl)piperidine-1-carboxamide] | +++ (+++ represents myosin activation value AC20 < 2 μM)
